Tests used:
[1] = target: T1, USP7 (Homo sapiens, UniProt Q93009); assay: USP7 activity assay (Ub-AMC substrate); format: biochemical; settings: Ub-AMC 300 nM, USP7 100 pM, 30 min pre-incubation
T1 construct: Full-length wild-type human USP7 and its catalytic mutant (cysteine 223 replaced by alanine, C223A) were produced as N-terminally His-tagged fusions; His (N); made in house; host or cells: Spodoptera frugiperda Sf9 (or High Five) insect cells, baculovirus pFastBac-HT-B
Text: The cDNA encoding USP7 was obtained by PCR amplification from placenta mRNA. USP7 cDNA was subcloned by PCR into a baculovirus expression vector (pFastBac-HT; Invitrogen). Full-length wild-type human USP7 and its catalytic mutant (cysteine 223 replaced by alanine, C223A) were produced as N-terminally His-tagged fusions in Spodoptera frugiperda cells (Sf9, Invitrogen), using the Bac-to-Bac Baculovirus system from Invitrogen according to the manufacturer's instructions. pFastBac-HT-B-USP7 was used to transform DH10bac cells (Invitrogen), and blue/white selection was carried out on X-gal/IPTG agar plates. Bacmid DNA was prepared by an alkaline lysis procedure. The integrity of the bacmid minipreps and their orientation were checked by PCR, using generic and specific primers. Sf9 insect cells were cultured in InsectXpress medium (Cambrex) at 27° C. and transfected with the corresponding bacmid, using GeneShuttle 40 (Q-BIOgen). Viruses were recovered in the supernatant 72 h after transfection. Viruses were amplified by infecting insect cells (Sf9 or High Five cells; invitrogen) in 50 ml InsectXpress medium in a 150 cm^2 cell culture flask with 500 μl of the supernatant from transfected Sf9 cells. Following the second round of amplification, infected cells were recovered by rapid SDS lysis, boiled for 5 min at 100° C., sonicated briefly and centrifuged for 20 min at 14,000 g. Expression levels in infected Sf9 cells were compared with those in uninfected cells. Fusion proteins were then allowed to bind to TALON beads (BD Biosciences, TALON metal affinity resin) for 30 min at 4° C. with gentle rocking. Beads were extensively washed (50 mM sodium phosphate buffer pH 7.0, 500 mM NaCl, 10 mM Imidazole, 0.5% Triton X-100 and 10% glycerol) and bound proteins were eluted in wash buffer supplemented with 250 mM Imidazole (Sigma). Eluted fractions were resolved on 4-12% NuPAGE gels (Novex, Invitrogen). Fractions containing high concentrations of purified proteins (purity >95%) were dialyzed (20 mM Tris HCl pH 7.6, 200 mM NaCl, 1 mM DTT, 1 mM EDTA and 10% glycerol) were aliquoted and snap frozen in liquid nitrogen before storage at −80° C.
USP7 was diluted in USP buffer (50 mM Tris HCl; 0.5 mM EDTA; 5 mM DTT; 0.01% Triton X-100; Bovine Serum Albumin 0.05 mg·ml^−1 pH7.6). Compounds stocks (10 mM) were stored at −20° C. in DMSO. Compounds were tested at different concentrations: from 200 μM to 91 nM.
Reactions were performed as duplicates in Black 384 well plates (small volumes microplates; Greiner; 10 μl final reaction volume). The substrate concentration for USP7 was 300 nM Ub-AMC (Chem. Biol., 2003, 10, p. 837-846) (Boston Biochem). The concentrations of the enzyme (USP7) in specificity assays was 100 pM. The concentrations were determined in order to perform specificity assays under initial velocities at fixed substrate concentration. Compounds were pre-incubated with enzymes for 30 minutes at 25° C. Reactions were initiated by addition of substrate to the plates containing the enzymes (+/− compounds) diluted in assay buffer. Reactions were incubated for 60 minutes at 37° C. Reactions were stopped by adding acetic acid (100 mM final). Readings were performed on a Pherastar Fluorescent Reader (BMG). λ
Emission 380 nm; λ Excitation=460 nm. Data (mean values +/− standard deviation) were analyzed as % of control (no compound) and plotted as percentage versus the Log of the compound concentration using GraphPad (Prism). Data were fitted to a sigmoidal model (variable slope).

[2] = target: T2, Caspase 3 (Homo sapiens, UniProt P42574); assay: Caspase 3 activity assay (Ac-DEVD-AMC substrate); format: biochemical; settings: Ac-DEVD-AMC 250 nM, Caspase 3 1.6 nM
T2 sequence (P42574 29-175 limits assumed): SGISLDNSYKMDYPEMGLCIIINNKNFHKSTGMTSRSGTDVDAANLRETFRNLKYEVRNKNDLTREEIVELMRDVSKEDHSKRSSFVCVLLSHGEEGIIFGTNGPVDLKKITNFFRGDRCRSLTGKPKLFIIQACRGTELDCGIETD
T2 sequence (P42574 176-277 limits assumed): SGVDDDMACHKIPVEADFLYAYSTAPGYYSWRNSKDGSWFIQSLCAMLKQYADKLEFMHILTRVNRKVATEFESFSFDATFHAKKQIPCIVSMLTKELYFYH
Method: Caspase 3 was diluted in Caspase 3 buffer (100 mM Hepes pH 7.5; 10% sucrose; 0.1% CHAPS). Compounds stocks (100 mM) were stored at −20° C. in DMSO. Compounds were tested at different concentrations: from 200 μM to 91 nM.
Reactions were performed as duplicates in Black 384 well plates (small volume microplates; Greiner; 10 μl final reaction volume). The substrate concentration for caspase 3 specificity assay was 250 nM (Ac-DEVD-AMC; Promega). The concentration of the enzyme (Caspase 3) in specificity assays was 1.6 nM. The concentrations were determined in order to perform specificity assays under initial velocities at fixed substrate concentration. Compounds were pre-incubated with enzymes for 30 minutes at 25° C. Reactions were initiated by addition of substrate to the plates containing the enzymes (+/− compounds) diluted in assay buffer. Reactions were incubated for 60 minutes at 37° C. Reactions were stopped by adding acetic acid (100 mM final). Readings were performed on a Pherastar Fluorescent Reader (BMG). λ Emission 380 nm; λ Excitation=460 nm. Data (mean values+/− standard deviation) were analyzed as % of control (no compound) and plotted as percentage versus the Log of the compound concentration using GraphPad (Prism). Data were fitted to a sigmoidal model (variable slope).

Work on `O=C(NCc1cccc(CN2CCCC2)c1)c1ccc2c(Cl)c3c(nc2c1)CCCC3` [Example 18, 9-chloro-N-(3-(pyrrolidin-1-ylmethyl)benzyl)-5,6,7,8-tetrahydroacridine-3-carboxamide] yielded an IC50 [1] of 18.3 µM and an IC50 [2] of over 200 µM.

`O=C(NCC1CCNCC1)c1ccc2c(Cl)c3c(nc2c1)CCCC3` [Example 24, 9-chloro-N-((piperidin-4-yl)methyl)-5,6,7,8-tetrahydroacridine-3-carboxamide] gave an IC50 [1] of 45.2 µM and an IC50 [2] of over 200 µM.

`CC1CCCCN1CCCNC(=O)c1ccc2c(Cl)c3c(nc2c1)CCCC3` (stereo not drawn) [Example 20, 9-chloro-N-(3-(2-methylpiperidin-1-yl)propyl)-516,7,8-tetrahydroacridine-3-carboxamide] was tested, and the IC50 [1] was 45.5 µM and the IC50 [2] was over 200 µM.

With `CN1CCCC1CCNC(=O)c1ccc2c(Cl)c3c(nc2c1)CCCC3` (stereo not drawn) [Example 17, 9-chloro-N-(2-(1-methylpyrrolidin-2-yl)ethyl)-5,6,7,8-tetrahydroacridino-3-carboxamide] the IC50 [1] was 13.7 µM and the IC50 [2] was over 200 µM.

`CN(C)c1ccc(CN2CCC(CNC(=O)c3ccc4c(Cl)c5c(nc4c3)CCCC5)CC2)cc1` [Example 23] gave an IC50 [1] of 33.1 µM and an IC50 [2] of over 200 µM.

For `COc1ccc(CN2CCC(CNC(=O)c3ccc4c(Cl)c5c(nc4c3)CCCC5)CC2)cc1` [Example 22, 9-chloro-N-((1-(4-methoxybenzyl)piperidin-4-yl)methyl)-5,6,7,8-tetrahydroacridine-3-carboxamide], the IC50 [1] was 27.4 µM and the IC50 [2] was over 200 µM.

`O=C(NCC(CN1CCCC1)C(O)c1ccccc1)c1ccc2c(Cl)c3c(nc2c1)CCCC3` (stereo not drawn) [Example 25, 9-chloro-N-(3-hydroxy-3-phenyl-2-pyrrolidin-1-ylmethylpropyl)-5,6,7,8-tetrahydroacridine-3-carboxamide] was tested, and the IC50 [1] was 59.5 µM and the IC50 [2] was over 200 µM.

`O=C(Nc1cccc(CN2CCCC2)c1)c1ccc2c(Cl)c3c(nc2c1)CCCC3` [Example 19, 9-chloro-N-(3-(pyrrolidin-1-ylmethyl)phenyl)-5.6,7,8-tetrahydroacridine-3-carboxamide] gave an IC50 [1] of 8.2 µM and an IC50 [2] of over 200 µM.

For `O=C(NCc1ccc(CN2CCCC2)cc1)c1ccc2c(Cl)c3c(nc2c1)CCCC3` [Example 21, 9-chloro-N-(4-(pyrrolidin-1-ylmethyl)benzyl)-5,6,7,8-tetrahydroacridine-3-carboxamide], the IC50 [1] was 16.3 µM and the IC50 [2] was over 200 µM.

Source: patent US9328093B2, “Selective inhibitors of ubiquitin specific protease 7, the pharmaceutical compositions thereof and their therapeutic applications” (HYBRIGENICS SA, priority 2010, dated 2016)
